In Sander's compilation of Henry's law constants (doi:10.1007/s002160101077):

Experiment: Henry solubility constant Hcp at 298.15 K (mol/(m3 Pa))
Details: reference: Pfeifer et al. (2001)

Henry solubility constant Hcp | Structure (SMILES)
0.045 | COc1cccc(Cl)c1 [1-chloro-3-methoxybenzene]
0.0091 | COc1c(Br)cc(Br)c(Cl)c1Br [2,4,6-tribromo-3-chloro-1-methoxybenzene]
0.0091 | COc1cc(Cl)c(Br)c(Cl)c1Br [2,4-dibromo-3,5-dichloro-1-methoxybenzene]
0.0098 | COc1c(Br)cc(Br)c(Cl)c1Cl [2,4-dibromo-5,6-dichloro-1-methoxybenzene]
0.011 | COc1c(Br)cc(Cl)cc1Br [2,6-dibromo-4-chloro-1-methoxybenzene]
0.011 | COc1cc(Cl)cc(Cl)c1Br [2-bromo-3,5-dichloro-1-methoxybenzene]
0.012 | COc1c(Cl)cc(Cl)cc1Br [2-bromo-4,6-dichloro-1-methoxybenzene]
0.018 | COc1ccc(Cl)cc1Br [2-bromo-4-chloro-1-methoxybenzene]
0.014 | COc1c(Cl)cccc1Br [2-bromo-6-chloro-1-methoxybenzene]
0.01 | COc1c(Cl)cc(Cl)c(Br)c1Cl [3-bromo-2,4,6-trichloro-1-methoxybenzene]
0.01 | COc1c(Cl)c(Cl)cc(Br)c1Cl [3-bromo-2,5,6-trichloro-1-methoxybenzene]
0.0092 | COc1c(Cl)c(Cl)c(Br)c(Cl)c1Cl [4-bromo-2,3,5,6-tetrachloro-1-methoxybenzene]
0.01 | COc1c(Cl)cc(Br)c(Cl)c1Cl [4-bromo-2,3,6-trichloro-1-methoxybenzene]
0.011 | COc1ccc(Br)c(Cl)c1Cl [4-bromo-2,3-dichloro-1-methoxybenzene]
0.012 | COc1c(Cl)cc(Br)cc1Cl [4-bromo-2,6-dichloro-1-methoxybenzene]
0.013 | COc1ccc(Br)cc1Cl [4-bromo-2-chloro-1-methoxybenzene]
0.011 | COc1cc(Cl)c(Br)c(Cl)c1 [4-bromo-3,5-dichloro-1-methoxybenzene]
0.011 | COc1cc(Br)c(Cl)cc1Cl [5-bromo-2,4-dichloro-1-methoxybenzene]
0.011 | COc1c(Br)ccc(Cl)c1Cl [6-bromo-2,3-dichloro-1-methoxybenzene]
1 | COc1c(Br)c(Br)c(Br)c(Br)c1Br [pentabromomethoxybenzene]
0.0021 | COc1c(Cl)c(Cl)c(Cl)c(Cl)c1Cl [pentachloromethoxybenzene]

The next lines start with the molecule.

Structure (SMILES) | Henry solubility constant Hcp
COc1cc(Cl)c(Cl)c(Cl)c1Cl [1,2,3,4-tetrachloro-5-methoxybenzene] | 0.0065
COc1c(Cl)cc(Cl)c(Cl)c1Cl [1,2,3,5-tetrachloro-4-methoxybenzene] | 0.0031
COc1ccc(Cl)c(Cl)c1Cl [1,2,3-trichloro-4-methoxybenzene] | 0.013
COc1cc(Cl)c(Cl)c(Cl)c1 [1,2,3-trichloro-5-methoxybenzene] | 0.0044
COc1c(Cl)c(Cl)cc(Cl)c1Cl [1,2,4,5-tetrachloro-3-methoxybenzene] | 0.0032
COc1c(Cl)ccc(Cl)c1Cl [1,2,4-trichloro-3-methoxybenzene] | 0.0098
COc1cc(Cl)c(Cl)cc1Cl [1,2,4-trichloro-5-methoxybenzene] | 0.011
COc1cccc(Cl)c1Cl [1,2-dichloro-3-methoxybenzene] | 0.022
COc1ccc(Cl)c(Cl)c1 [1,2-dichloro-4-methoxybenzene] | 0.0092
COc1c(Br)cc(Br)cc1Br [1,3,5-tribromo-2-methoxybenzene] | 0.013
COc1c(Cl)cc(Cl)cc1Cl [1,3,5-trichloro-2-methoxybenzene] | 0.0046
COc1c(Br)cccc1Br [1,3-dibromo-2-methoxybenzene] | 0.037
COc1c(Cl)cccc1Cl [1,3-dichloro-2-methoxybenzene] | 0.0088
COc1cc(Cl)cc(Cl)c1 [1,3-dichloro-5-methoxybenzene] | 0.0023
COc1cc(Cl)ccc1Cl [1,4-dichloro-2-methoxybenzene] | 0.021
COc1ccc(Br)cc1Br [1,5-dibromo-2-methoxybenzene] | 0.081
COc1ccc(Cl)cc1Cl [1,5-dichloro-2-methoxybenzene] | 0.012
COc1ccccc1Br [1-bromo-2-methoxybenzene] | 0.029
COc1cccc(Br)c1 [1-bromo-3-methoxybenzene] | 0.0072
COc1ccc(Br)cc1 [1-bromo-4-methoxybenzene] | 0.011
